Assay results taken from patent US11260023B2, “Topical compositions containing rofecoxib and methods of making and using the same” (BRIORI BIOTECH, LLC, priority 2020, dated 2022).
Several values for one entry are separate records, joined by “and”; a condition that tells them apart may be missing. Identical values can stand only once.

Experiment: Solubility of rofecoxib in solvent systems containing two or three solvents; synergistic or antagonist effect
Format: physicochemical
Method: The solubility of rofecoxib in solvent systems containing two or three solvents was determined. In solvent systems containing two solvents, […] of each solvent was added to 100 mg of rofecoxib. In solvent systems containing three solvents, […] of each solvent was added to 100 mg of rofecoxib. The samples were mixed using the protocol for solvent systems containing single solvents above. Serial dilutions of the rofecoxib solvent solutions were made (1:100 v:v), (1:1000 v/v), and (1:2000 v/v). Solvents without rofecoxib were diluted with methanol and used to blank a Beckman DU-7400 spectrophotometer. The absorbance of the samples was determined at a wavelength of 279.1 nm. The concentration of rofecoxib dissolved in the solvent was calculated using Beer's Law. The ability of the solvent systems to synergistically dissolve rofecoxib or antagonistically dissolve rofecoxib (reduce the ability of rofecoxib to dissolve was determined) according to the protocol below. The contribution for solubility of a single solvent in a two-mixture solution was calculated to be ½ of the calculated solubility of rofecoxib in one gram of excipient. Likewise, the contribution for solubility of a three-mixture was calculated to be ⅓ of the calculated solubility of rofecoxib in one gram of excipient. The expected solubility for a mixture is the addition of the contribution of each excipient. […] The percent change between the expected solubility and actual solubility was determined. […] Similar calculations are utilized for solvent systems containing three or more solvents.

SMILES: CS(=O)(=O)c1ccc(C2=C(c3ccccc3)C(=O)OC2)cc1 [Rofecoxib]
- Synergistic effect of three-solvent systems on dissolving rofecoxib (AC/PEG/PGD, BA/AC/PEG, BA/PEG/PGD, PC/AC/PGD, BA/AC/PGD, PC/PEG/PGD, DI/PC/AC, PC/BA/AC, DI/PC/BA, DI/PC/EA, PC/AC/PEG, DI/PC/DGME, DI/PC/PEG, DI/PC/PGD, DI/BA/PC, DI/PC/DMSO): work synergistically to dissolve rofecoxib
- Synergistic effect of two-solvent systems on dissolving rofecoxib (BA/AC, AC/PEG, EA/PPG, PEG/EA, AC/DGME, AC/PC, AC/DI, PC/DI, PEG/PGD, AC/PGD, DI/PGD, PC/PGD, EA/DMSO, PEG/DGME, EA/DGME, EA/BA, DGME/PGD, BA/PGD, EA/M24D): work synergistically to dissolve rofecoxib
- expected solubility of rofecoxib in 500 μg of acetone (contribution of acetone in system of equal amounts acetone and benzyl alcohol): 11.79 mg/g
- expected solubility of rofecoxib in 500 μg of benzyl alcohol (contribution of benzyl alcohol in system of equal amounts acetone and benzyl alcohol): 9.77 mg/g
- % Change (observed vs expected solubility) (in AC + DGME): 139.9%
- Expected Solubility (in AC + DGME): 16.30 mg/g
- Observed Solubility (in AC + DGME): 22.80 mg/g
- % Change (observed vs expected solubility) (in AC + EA): 109.7%
- Expected Solubility (in AC + EA): 14.52 mg/g
- Observed Solubility (in AC + EA): 15.92 mg/g
- % Change (observed vs expected solubility) (in AC + MP): 97.9% and 52.7%
- Expected Solubility (in AC + MP): 110.77 mg/g
- Observed Solubility (in AC + MP): 108.48 mg/g and 58.38 mg/g
- % Change (observed vs expected solubility) (in AC + MP + PEG): 34.29%
- Expected Solubility (in AC + MP + PEG): 78.24 mg/g
- % Change (observed vs expected solubility) (in AC + MP + PGD): 77.19%
- Expected Solubility (in AC + MP + PGD): 76.17 mg/g
- % Change (observed vs expected solubility) (in AC + PEG): 137.2% and 174.3%
- Expected Solubility (in AC + PEG): 18.34 mg/g
- Observed Solubility (in AC + PEG): 25.15 mg/g and 31.96 mg/g
- Expected Solubility (in AC + PEG + PGD): 14.55 mg/g
- % Change (observed vs expected solubility) (in AC + PGD): 124.0% and 113.7%
- Expected Solubility (in AC + PGD): 15.23 mg/g
- Observed Solubility (in AC + PGD): 18.88 mg/g and 17.32 mg/g
- % Change (observed vs expected solubility) (in BA + AC): 150.7% and 134.8% and 100.7% and 185.3%
- Expected Solubility (in BA + AC): 21.54 mg/g and 31.65 mg/g
- Observed Solubility (in BA + AC): 32.46 mg/g and 29.03 mg/g and 31.86 mg/g and 39.91 mg/g
- % Change (observed vs expected solubility) (in BA + AC + MP): 48.23%
- Expected Solubility (in BA + AC + MP): 80.37 mg/g
- Expected Solubility (in BA + AC + PEG): 18.75 mg/g
- % Change (observed vs expected solubility) (in BA + AC + PGD): 197.12%
- Expected Solubility (in BA + AC + PGD): 16.68 mg/g
- Observed Solubility (in BA + AC + PGD): 32.89 mg/g
- Expected Solubility (in BA + AC, listed as rofecoxib): 21.56 mg/g
- % Change (observed vs expected solubility) (in BA + DGME): 64.2%
- Expected Solubility (in BA + DGME): 14.31 mg/g
- Observed Solubility (in BA + DGME): 9.18 mg/g
- % Change (observed vs expected solubility) (in BA + EA): 116.8%
- Expected Solubility (in BA + EA): 12.52 mg/g
- Observed Solubility (in BA + EA): 14.63 mg/g
- % Change (observed vs expected solubility) (in BA + MP): 41.3% and 30.8%
- Expected Solubility (in BA + MP): 108.77 mg/g
- Observed Solubility (in BA + MP): 44.97 mg/g and 33.53 mg/g
- % Change (observed vs expected solubility) (in BA + MP + PEG): 40.43%
- Expected Solubility (in BA + MP + PEG): 76.89 mg/g
- % Change (observed vs expected solubility) (in BA + MP + PGD): 85.42%
- Expected Solubility (in BA + MP + PGD): 74.82 mg/g
- % Change (observed vs expected solubility) (in BA + PEG): 63.2% and 61.6% and 60.6%
- Expected Solubility (in BA + PEG): 16.34 mg/g
- Observed Solubility (in BA + PEG): 10.33 mg/g and 10.06 mg/g and 9.91 mg/g
- Expected Solubility (in BA + PEG + PGD): 13.20 mg/g
- % Change (observed vs expected solubility) (in BA + PGD): 110.9% and 103.2%
- Expected Solubility (in BA + PGD): 13.24 mg/g
- Observed Solubility (in BA + PGD): 14.67 mg/g and 13.66 mg/g
- % Change (observed vs expected solubility) (in DGME + EA): 117.3%
- Expected Solubility (in DGME + EA): 7.29 mg/g
- Observed Solubility (in DGME + EA): 8.54 mg/g
- % Change (observed vs expected solubility) (in DGME + PGD): 115.7%
- Expected Solubility (in DGME + PGD): 8.00 mg/g
- Observed Solubility (in DGME + PGD): 9.26 mg/g
- % Change (observed vs expected solubility) (in DI + AC): 134.6%
- Expected Solubility (in DI + AC): 31.34 mg/g
- Observed Solubility (in DI + AC): 42.18 mg/g
- % Change (observed vs expected solubility) (in DI + BA): 72.3%
- Expected Solubility (in DI + BA): 29.34 mg/g
- Observed Solubility (in DI + BA): 21.20 mg/g
- % Change (observed vs expected solubility) (in DI + BA + DMSO): 85.05%
- Expected Solubility (in DI + BA + DMSO): 67.43 mg/g
- % Change (observed vs expected solubility) (in DI + BA + PC): 155.19%
- Expected Solubility (in DI + BA + PC): 36.04 mg/g
- Observed Solubility (in DI + BA + PC): 55.93 mg/g
- % Change (observed vs expected solubility) (in DI + DGME): 95.0%
- Expected Solubility (in DI + DGME): 24.11 mg/g
- Observed Solubility (in DI + DGME): 22.91 mg/g
- % Change (observed vs expected solubility) (in DI + EA): 69.9%
- Expected Solubility (in DI + EA): 22.32 mg/g
- Observed Solubility (in DI + EA): 15.60 mg/g
- % Change (observed vs expected solubility) (in DI + MP): 71.6%
- Expected Solubility (in DI + MP): 118.57 mg/g
- Observed Solubility (in DI + MP): 84.92 mg/g
- % Change (observed vs expected solubility) (in DI + PC): 133.9% and 130.6%
- Expected Solubility (in DI + PC): 44.29 mg/g
- Observed Solubility (in DI + PC): 59.30 mg/g and 57.83 mg/g
- % Change (observed vs expected solubility) (in DI + PC + AC): 143.72%
- Expected Solubility (in DI + PC + AC): 37.38 mg/g
- Observed Solubility (in DI + PC + AC): 53.73 mg/g
- % Change (observed vs expected solubility) (in DI + PC + BA): 132.30%
- Expected Solubility (in DI + PC + BA): 36.04 mg/g
- Observed Solubility (in DI + PC + BA): 47.68 mg/g
- % Change (observed vs expected solubility) (in DI + PC + DGME): 123.28%
- Expected Solubility (in DI + PC + DGME): 32.55 mg/g
- Observed Solubility (in DI + PC + DGME): 40.12 mg/g
- % Change (observed vs expected solubility) (in DI + PC + DMSO): 114.83%
- Expected Solubility (in DI + PC + DMSO): 77.39 mg/g
- % Change (observed vs expected solubility) (in DI + PC + EA): 128.04%
- Expected Solubility (in DI + PC + EA): 31.36 mg/g
- Observed Solubility (in DI + PC + EA): 40.15 mg/g
- % Change (observed vs expected solubility) (in DI + PC + PEG): 119.10%
- Expected Solubility (in DI + PC + PEG): 33.90 mg/g
- Observed Solubility (in DI + PC + PEG): 40.38 mg/g
- % Change (observed vs expected solubility) (in DI + PC + PGD): 115.12%
- Expected Solubility (in DI + PC + PGD): 31.83 mg/g
- Observed Solubility (in DI + PC + PGD): 36.65 mg/g
- % Change (observed vs expected solubility) (in DI + PEG): 105.8%
- Expected Solubility (in DI + PEG): 26.14 mg/g
- Observed Solubility (in DI + PEG): 27.65 mg/g
